Measured values: patent publication US20220193081A1 (Ellamed IP & Services PTE. LTD., priority 2019, published 2022)

Legend:
[1] = Maximum dissolution study in 50% aqueous ethanol, visual inspection (Example 5); format: physicochemical; conditions: pH 5.5, NaOH
Procedure: Before being placed on storage, and at time points 7, 42 days and 2 months, the concentration of sildenafil in the mixtures were assayed using HPLC. The samples were then stored at either −20° C., 2-8° C. or 25° C. for periods of up to 2 months. Periodically, the samples were visually inspected for evidence of crystallization.

[2] = Extended stability in buffered 50% ethanol, HPLC assay of sildenafil and impurities (Example 6); format: physicochemical
Procedure: Before being placed on storage in glass vials, plastic containers or Easysnap® blisters, and at time points up to 160 days, the concentration of sildenafil and its impurities in the mixtures were assayed using HPLC. The samples were then stored at 25° C./60% RH, 30° C./65% RH or 40° C./75% RH for periods of up to 160 days. The results of the assays are shown in Table 10 (sildenafil), Table 11 (Impurity B) and Table 12 (Impurity D).

[3] = tablets or oral suspension; cited from earlier work
[4] = Easysnap ®, 25° C./60% RH, Day 32
[5] = Easysnap ®, 25° C./60% RH, Day 80
[6] = Easysnap ®, 25° C./60% RH, Day 159
[7] = Easysnap ®, 30° C./65% RH, Day 32
[8] = Easysnap ®, 40° C./75% RH, Day 32
[9] = plastic, 25° C./60% RH, Day 159

Structure (SMILES): CCCc1nn(C)c2c(=O)nc(-c3cc(S(=O)(=O)N4CCN(C)CC4)ccc3OCC)[nH]c12.O=C(O)CC(O)(CC(=O)O)C(=O)O [sildenafil citrate, 1-[[3-(4,7-Dihydro-1-methyl-7-oxo-3-propyl-1H-pyrazolo[4,3-d]pyrimidin-5-yl)-4-ethoxyphenyl]sulfonyl]-4-methylpiperazine citrate salt]
- visual inspection for crystallization ([1]; Day 0 51.65 mg/ml, without sucralose, 2-8° C.): Prec.
- visual inspection for crystallization ([1]; Day 0 51.65 mg/ml, without sucralose, −20° C.): Prec.
- visual inspection for crystallization ([1]; Day 0 82.79 mg/ml, with sucralose, 2-8° C.): Prec.
- visual inspection for crystallization ([1]; Day 0 82.79 mg/ml, with sucralose, −20° C.): Prec.
- visual inspection for crystallization ([1]; Day 0 123.95 mg/ml, with sucralose, 25° C. (single cell in the row)): Prec.
- sildenafil assay ([2]; 20 mg/ml with sucralose 1 mg/ml, monoammonium glycyrrhizinate 1 mg/ml, eucalyptus-menthol 3 mg/ml, Day 0, before storage): 102.02 % LS
- Impurity B [2, 4]: 0.09 % RS
- Impurity D [2, 4]: 0.030 % RS
- sildenafil assay [2, 4]: 100.87 % LS
- Impurity B [2, 5]: 0.11 % RS
- Impurity D [2, 5]: 0.030 % RS
- sildenafil assay [2, 5]: 101.53 % LS
- Impurity B [2, 6]: 0.20 % RS
- Impurity D [2, 6]: 0.034 % RS
- sildenafil assay [2, 6]: 100.91 % LS
- Impurity B [2, 7]: 0.10 % RS
- Impurity D [2, 7]: 0.030 % RS
- sildenafil assay [2, 7]: 100.85 % LS
- Impurity B [2, 8]: 0.20 % RS
- Impurity D [2, 8]: 0.030 % RS
- sildenafil assay [2, 8]: 101.46 % LS
- Impurity B ([2]; glass, 25° C./60% RH, Day 32): 0.07 % RS
- Impurity D ([2]; glass, 25° C./60% RH, Day 32): 0.030 % RS
- sildenafil assay ([2]; glass, 25° C./60% RH, Day 32): 100.76 % LS
- Impurity B ([2]; glass, 25° C./60% RH, Day 80): 0.10 % RS
- Impurity D ([2]; glass, 25° C./60% RH, Day 80): 0.030 % RS
- sildenafil assay ([2]; glass, 25° C./60% RH, Day 80): 101.47 % LS
- Impurity B ([2]; glass, 25° C./60% RH, Day 159): 0.17 % RS
- Impurity D ([2]; glass, 25° C./60% RH, Day 159): 0.038 % RS
- sildenafil assay ([2]; glass, 25° C./60% RH, Day 159): 100.68 % LS
- Impurity B ([2]; glass, 30° C./65% RH, Day 32): 0.10 % RS
- Impurity D ([2]; glass, 30° C./65% RH, Day 32): 0.030 % RS
- sildenafil assay ([2]; glass, 30° C./65% RH, Day 32): 100.46 % LS
- Impurity B ([2]; glass, 40° C./75% RH, Day 32): 0.17 % RS
- Impurity D ([2]; glass, 40° C./75% RH, Day 32): 0.030 % RS
- sildenafil assay ([2]; glass, 40° C./75% RH, Day 32): 100.39 % LS
- Impurity B ([2]; glass, 40° C./75% RH, Day 159): 0.45 % RS
- Impurity D ([2]; glass, 40° C./75% RH, Day 159): 0.039 % RS
- sildenafil assay ([2]; glass, 40° C./75% RH, Day 159): 100.60 % LS
- Impurity B ([2]; plastic, 25° C./60% RH, Day 32): 0.08 % RS
- Impurity D ([2]; plastic, 25° C./60% RH, Day 32): 0.040 % RS
- sildenafil assay ([2]; plastic, 25° C./60% RH, Day 32): 100.42 % LS
- Impurity B ([2]; plastic, 25° C./60% RH, Day 80): 0.09 % RS
- Impurity D ([2]; plastic, 25° C./60% RH, Day 80): 0.030 % RS
- sildenafil assay ([2]; plastic, 25° C./60% RH, Day 80): 101.59 % LS
- Impurity B [2, 9]: 0.16 % RS
- Impurity D [2, 9]: 0.033 % RS
- sildenafil assay [2, 9]: 101.19 % LS
- Impurity B ([2]; plastic, 30° C./65% RH, Day 32): 0.09 % RS
- Impurity D ([2]; plastic, 30° C./65% RH, Day 32): 0.030 % RS
- sildenafil assay ([2]; plastic, 30° C./65% RH, Day 32): 100.79 % LS
- Impurity B ([2]; plastic, 40° C./75% RH, Day 32): 0.17 % RS
- Impurity D ([2]; plastic, 40° C./75% RH, Day 32): 0.030 % RS
- sildenafil assay ([2]; plastic, 40° C./75% RH, Day 32): 100.76 % LS
- absolute bioavailability [3]: about 41%
